Results taken from patent EP4603105A1, “PHARMACEUTICAL COMPOSITION CONTAINING CYCLIC COMPOUND HAVING SELECTIVE KRAS INHIBITORY EFFECT AGAINST HRAS AND NRAS” (CHUGAI SEIYAKU KABUSHIKI KAISHA, priority 2022, dated 2024).
pIC50, pKd: −log10 of the molar value. Where a SMILES comes first, the peptide text is derived from it. Bridges are numbered along the chain shown (N, C = ends). [ ]: non-standard residue; d: D form. hPhe(3-Cl-4-CF3) = N[C@@H](CCc1ccc(C(F)(F)F)c(Cl)c1)C(=O)O; NPrPhe(4-CF3) = CCCN[C@@H](Cc1ccc(C(F)(F)F)cc1)C(=O)O; NMeGly(cPent) = CN[C@H](C(=O)O)C1CCCC1; Pro(4,4-F2) = O=C(O)[C@@H]1CC(F)(F)CN1; NMeL = CN[C@@H](CC(C)C)C(=O)O; Aze = O=C(O)[C@@H]1CCN1; Ac4c = NC1(C(=O)O)CCC1; Sar = CNCC(=O)O

Columns and labels:
HRAS wild-type protein = HRAS wild-type protein (Homo sapiens, UniProt P01112); experiment: Binding to HRAS by surface plasmon resonance (SPR), KD and KD ratio to KRAS
In short: (§1)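 Recombinant RAS proteins bearing a biotinylated Avi tag and loaded with GDP served as the captured ligand, recaptured fresh every cycle. Binding responses were referenced to an uncoated surface and a buffer-only blank cycle. Dissociation constants were obtained by 1:1 model fitting at 30°C.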

[1] = biological target: GDP-bound KRAS wild-type protein (Homo sapiens, UniProt P01116); experiment: Binding to KRAS by surface plasmon resonance (SPR), dissociation constant KD
In short: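 Measured at 30°C: SPR with GDP-loaded, E. coli-expressed biotin-Avi RAS captured (~100–300 RU), ascending 75 s compound injections, HBS pH 7.4 with GDP, MgCl2, 4% DMSO. KD from 1:1 fit.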

[2] = biological target: GDP-bound NRAS wild-type protein (Homo sapiens, UniProt P01111); experiment: Binding to NRAS by surface plasmon resonance (SPR), KD and KD ratio to KRAS
In short: as §1

[3] = test system: human lung cancer strain NCI-H441; assay type: cell-based
In short: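 Signal came from […] measured per well once the reagent was added. Beforehand, cells were cultured at 37°C and 5% carbon dioxide on a compound series serially diluted in dimethyl sulfoxide.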

[4] = ratio of KD value for HRAS wild-type protein to KD value for KRAS (SPR)
[5] = Single Cycle Kinetics, 1:1 binding model
[6] = ratio of KD value for GDP-bound NRAS wild-type protein to KD value for KRAS (SPR)
[7] = ratio of KD for HRAS wild-type protein to KD for KRAS
[8] = ratio of KD for GDP-bound NRAS wild-type protein to KD for KRAS
[9] = ratio of the KD value with respect to HRAS wild-type protein to the KD value with respect to KRAS
[10] = ratio of the KD value with respect to GDP-bound NRAS wild-type protein to the KD value with respect to KRAS

Sequence of HRAS wild-type protein (P01112 whole entry): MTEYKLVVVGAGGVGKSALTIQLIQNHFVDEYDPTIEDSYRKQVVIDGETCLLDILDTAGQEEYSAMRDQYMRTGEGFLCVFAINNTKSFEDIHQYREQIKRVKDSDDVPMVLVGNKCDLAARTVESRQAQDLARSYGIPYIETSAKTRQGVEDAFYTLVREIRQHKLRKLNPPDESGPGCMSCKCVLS
Sequence of GDP-bound NRAS wild-type protein (P01111 whole entry): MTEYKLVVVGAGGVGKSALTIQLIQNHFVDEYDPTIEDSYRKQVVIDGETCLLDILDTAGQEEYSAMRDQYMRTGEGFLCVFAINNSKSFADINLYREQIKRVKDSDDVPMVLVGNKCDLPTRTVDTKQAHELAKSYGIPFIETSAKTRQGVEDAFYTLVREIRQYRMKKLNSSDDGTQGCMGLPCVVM
Sequence of GDP-bound KRAS wild-type protein (P01116 1-188 isoform P01116-2): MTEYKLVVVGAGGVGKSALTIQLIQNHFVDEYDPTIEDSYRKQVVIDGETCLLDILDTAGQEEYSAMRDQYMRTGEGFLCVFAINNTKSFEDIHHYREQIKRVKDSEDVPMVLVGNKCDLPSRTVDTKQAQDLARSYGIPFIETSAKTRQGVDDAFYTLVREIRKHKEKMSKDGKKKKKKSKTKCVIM

Structure (SMILES)	pKd [1, 5]	pIC50 [3]	pKd ([1]; Single Cycle Kinetics)	pKd ([1]; 1:1 binding model)	HRAS /KRAS (HRAS wild-type protein; [4])	NRAS /KRAS [2, 6]	HRAS /KRAS (HRAS wild-type protein; [7])	NRAS /KRAS [2, 8]	HRAS /KRAS (HRAS wild-type protein; [9])	NRAS /KRAS [2, 10]
CCO[C@@H]1C[C@H]2C(=O)NC3(CCC3)C(=O)N(C)[C@@H](C3CCCC3)C(=O)N(C)[C@H](C(=O)N(C)C)CC(=O)N(C)[C@@H](CC(C)C)C(=O)N[C@@H]([C@@H](C)CC)C(=O)N(C)CC(=O)N(C)[C@H]3CC(C)=CCN(C3=O)[C@@H](Cc3ccc(C(F)(F)F)cc3)C(=O)N(C)CC(=O)N[C@@H](CCc3cc(F)c(C(F)(F)F)c(F)c3)C(=O)N2C1 [PP1032]	–	7.36	9.42	–	–	–	C (A compound having a KD ratio of 0.1 or more and less than 3 is denoted as C)	C (A compound having a KD ratio of 0.1 or more and less than 3 is denoted as C)	–	–
CCCN1C(=O)CN(C)C(=O)[C@@H]2CCN2C(=O)[C@H]([C@@H](C)CC)NC(=O)[C@H](CC(C)C)N(C)C(=O)C[C@@H](C(=O)N(C)C)NC(=O)[C@H](C2CCCC2)N(C)C(=O)C2(CCC2)NC(=O)[C@@H]2CC(F)(F)CN2C(=O)[C@H](CCc2ccc(C(F)(F)F)c(Cl)c2)NC(=O)CN(C)C(=O)[C@@H]1Cc1ccc(C(F)(F)F)cc1 [PP0376] ([NMeL]I[Aze][Sar][NPrPhe(4-CF3)][Sar][hPhe(3-Cl-4-CF3)][Pro(4,4-F2)][Ac4c][NMeGly(cPent)]D-NMe2; lactam N-11)	–	6.94	–	8.70	–	–	B (a compound having 3 or more and less than 10 is denoted as B)	B (a compound having 3 or more and less than 10 is denoted as B)	–	–
CCO[C@@H]1C[C@H]2C(=O)NC3(CCC3)C(=O)N(C)[C@@H](C3CCCC3)C(=O)N(C)[C@H](C(=O)N(C)C)CC(=O)N(C)[C@@H](Cc3ccccc3)C(=O)N[C@@H]([C@@H](C)CC)C(=O)N(C)CC(=O)N(C)[C@H]3CCCCCN(C3=O)[C@@H](Cc3ccc(C(F)(F)F)cc3)C(=O)N(C)CC(=O)N[C@@H](CCc3cc(F)c(C(F)(F)F)c(F)c3)C(=O)N2C1 [PP0672]	9.52	7.71	–	–	–	–	–	–	B (a compound having 3 or more and less than 10 is denoted as B)	B (a compound having 3 or more and less than 10 is denoted as B)
CC[C@H](C)[C@@H]1NC(=O)[C@H](CC2CCCC2)N(C)C(=O)C[C@@H](C(=O)N(C)C)N(C)C(=O)[C@H](C2CCCC2)N(C)C(=O)C2(CCC2)NC(=O)[C@@H]2C[C@@H](C(F)(F)F)CN2C(=O)[C@H](CCc2cc(F)c(C(F)(F)F)c(F)c2)NC(=O)CN(C)C(=O)[C@H](Cc2ccc(F)cc2)N2CC/C=C\C[C@@H](C2=O)N(C)C(=O)CN(C)C1=O [PP1508]	9.82	7.55	–	–	A (a compound having 10 or more and less than 20 is denoted as A)	A (a compound having 10 or more and less than 20 is denoted as A)	–	–	–	–
CCO[C@@H]1C[C@H]2C(=O)NC3(CC(C)(C)C3)C(=O)N(C)[C@@H](C3CCCC3)C(=O)N(C)[C@H](C(=O)N(C)C)CC(=O)N(C)[C@@H]([C@@H](C)OC)C(=O)N[C@@H]([C@@H](C)CC)C(=O)N(C3CC3)CC(=O)N(C)[C@H]3C/C=C\CCN(C3=O)[C@@H](Cc3ccc(C(F)(F)F)cc3)C(=O)N(C)CC(=O)N[C@@H](CCc3ccc(C(F)(F)F)c(OC)c3)C(=O)N2C1 [PP3200]	–	8.15	–	9.68	–	–	A (a compound having 10 or more and less than 20 is denoted as A)	A (a compound having 10 or more and less than 20 is denoted as A)	–	–
CCO[C@@H]1C[C@H]2C(=O)NC3(CC(C)(C)C3)C(=O)N(C)[C@@H](C3CCCC3)C(=O)N(C)[C@H](C(=O)N(C)CC)CC(=O)N(C)[C@H]3C/C=C/c4ccc(cc4)C[C@@H](C(=O)N(C)CC(=O)N[C@@H](CCc4ccc(Cl)c(Cl)c4)C(=O)N2C1)N1CC/C=C\C[C@@H](C1=O)N(C)C(=O)CN(C)C(=O)[C@H]([C@@H](C)CC)NC3=O [PP3056]	–	6.82	–	8.85	–	–	A (a compound having 10 or more and less than 20 is denoted as A)	A (a compound having 10 or more and less than 20 is denoted as A)	–	–
CCO[C@@H]1C[C@H]2C(=O)NC3(CCC3)C(=O)N(C)[C@@H](C3CCCC3)C(=O)N(C)[C@H](C(=O)N(C)C)CC(=O)N(C)[C@@H](CC)C(=O)N[C@@H]([C@@H](C)CC)C(=O)N3CCC[C@H]3C(=O)N(C)[C@H]3C/C=C\CCN(C3=O)[C@@H](Cc3ccc(C(F)(F)F)cc3)C(=O)N(C)CC(=O)N[C@@H](CCc3cc(F)c(C(F)(F)F)c(F)c3)C(=O)N2C1 [PP1056]	–	7.12	9.68	–	–	–	A (a compound having 10 or more and less than 20 is denoted as A)	A (a compound having 10 or more and less than 20 is denoted as A)	–	–
CCO[C@@H]1C[C@H]2C(=O)NC3(CCC3)C(=O)N(C)[C@@H](C3CCCC3)C(=O)N(C)[C@H](C(=O)N3CCOCC3)CC(=O)N(C)[C@@H](CC(C)C)C(=O)N[C@@H]([C@H](C)CC)C(=O)N(C)CC(=O)N(C)[C@H]3CCCCN(C3=O)[C@@H](Cc3ccc(C(F)(F)F)cc3)C(=O)N(C)CC(=O)N[C@@H](CCc3cc(F)c(C(F)(F)F)c(F)c3)C(=O)N2C1 [PP0806]	–	7.77	9.72	–	–	–	B (a compound having 3 or more and less than 10 is denoted as B)	B (a compound having 3 or more and less than 10 is denoted as B)	–	–

The next lines start with results.

pKd [1, 5]	pIC50 [3]	pKd ([1]; Single Cycle Kinetics)	pKd ([1]; 1:1 binding model)	Structure (SMILES)	HRAS /KRAS (HRAS wild-type protein; [4])	NRAS /KRAS [2, 6]	HRAS /KRAS (HRAS wild-type protein; [7])	NRAS /KRAS [2, 8]	HRAS /KRAS (HRAS wild-type protein; [9])	NRAS /KRAS [2, 10]
10.01	8.60	–	–	CCCN(C)C(=O)[C@@H]1CC(=O)N(C)[C@@H](CC)C(=O)N[C@@H]([C@@H](C)CC)C(=O)N(C)CC(=O)N(C)[C@H]2C/C=C\CCN(C2=O)[C@@H](Cc2ccc(C(F)(F)F)cc2)C(=O)N(C)CC(=O)N[C@@H](CCc2ccc(C(F)(F)F)c(OC)c2)C(=O)N2C[C@H](OCC)C[C@H]2C(=O)NC2(CC(C)(C)C2)C(=O)N(C)[C@@H](C2CCCC2)C(=O)N1C [PP1654]	A (a compound having 10 or more and less than 20 is denoted as A)	A (a compound having 10 or more and less than 20 is denoted as A)	–	–	–	–
10.01	7.85	–	–	CCCOC[C@H]1C(=O)N[C@@H]([C@@H](C)CC)C(=O)N(C)CC(=O)N(C)[C@H]2C/C=C\CCN(C2=O)[C@@H](Cc2ccc(C(F)(F)F)cc2)C(=O)N(C)CC(=O)N[C@@H](CCc2ccc(C(F)(F)F)c(OC)c2)C(=O)N2C[C@@H](C)C[C@H]2C(=O)NC2(CC(C)(C)C2)C(=O)N(C)[C@@H](C2CCCC2)C(=O)N(C)[C@H](C(=O)N(C)C)CC(=O)N1C [PP1997]	–	–	–	–	B (a compound having 3 or more and less than 10 is denoted as B)	A (a compound having 10 or more and less than 20 is denoted as A)
9.85	8.43	–	–	CCCOC[C@H]1C(=O)N[C@@H]([C@@H](C)CC)C(=O)N(C)CC(=O)N(C)[C@H]2C/C=C\CCN(C2=O)[C@@H](Cc2ccc(C)cc2)C(=O)N(C)CC(=O)N[C@@H](CCc2ccc(C(F)(F)F)c(OC)c2)C(=O)N2C[C@H](OCC)C[C@H]2C(=O)N(C)C2(CCC2)C(=O)N(C)[C@@H](C(CC)CC)C(=O)N(C)[C@H](C(=O)N(C)C)CC(=O)N1C [PP2323]	–	–	–	–	A (a compound having 10 or more and less than 20 is denoted as A)	A (a compound having 10 or more and less than 20 is denoted as A)
–	7.42	–	9.34	CCO[C@@H]1C[C@H]2C(=O)N(C)C3(CC(C)(C)C3)C(=O)N(C)[C@@H](C(CC)CC)C(=O)N(C)[C@H](C(=O)N(C)C)CC(=O)N(C)[C@@H](COC)C(=O)N[C@@H]([C@@H](C)CC)C(=O)N(C)CC(=O)N(C)[C@H]3C/C=C\CCN(C3=O)[C@@H](Cc3ccc(C)cc3)C(=O)N(C)CC(=O)N[C@@H](CCc3ccc(Cl)c(Cl)c3)C(=O)N2C1 [PP2810]	–	–	A (a compound having 10 or more and less than 20 is denoted as A)	AA (a compound having 20 or more is denoted as AA)	–	–
–	8.55	–	10.12	CCO[C@@H]1C[C@H]2C(=O)NC3(CC(C)(C)C3)C(=O)N(C)[C@@H](C3CCCC3)C(=O)N(C)[C@H](C(=O)N(C)C)CC(=O)N(C)[C@@H]([C@@H](C)OC)C(=O)N[C@@H]([C@@H](C)CC)C(=O)N(C)CC(=O)N(C)[C@H]3C/C=C\CCN(C3=O)[C@@H](Cc3ccc(C)cc3)C(=O)N(C)CC(=O)N[C@@H](CCc3cc(F)c(C(F)(F)F)c(F)c3)C(=O)N2C1 [PP3208]	–	–	A (a compound having 10 or more and less than 20 is denoted as A)	A (a compound having 10 or more and less than 20 is denoted as A)	–	–
–	7.54	–	9.43	CCO[C@@H]1C[C@H]2C(=O)NC3(CCC3)C(=O)N(C)[C@@H](C3CCCC3)C(=O)N(C)[C@H](C(=O)N(C)C)CC(=O)N(C)[C@@H](CC3CCCC3)C(=O)N[C@@H]([C@@H](C)CC)C(=O)N(C)CC(=O)N(C)[C@H]3C/C=C\CCN(C3=O)[C@@H](Cc3ccc(C)cc3)C(=O)N(C)CC(=O)N[C@@H](CCc3ccc(C(F)(F)F)c(C4CC4)c3)C(=O)N2C1 [PP2681]	–	–	A (a compound having 10 or more and less than 20 is denoted as A)	A (a compound having 10 or more and less than 20 is denoted as A)	–	–
–	7.53	–	9.28	CCC[C@H]1C(=O)N[C@@H]([C@@H](C)CC)C(=O)N(C)CC(=O)N(C)[C@H]2C/C=C\CCN(C2=O)[C@@H](Cc2ccc(C)cc2)C(=O)N(C)CC(=O)N[C@@H](CCc2ccc(C(F)(F)F)c(OC)c2)C(=O)N2CC3(CC3)C[C@H]2C(=O)NC2(CC(C)(C)C2)C(=O)N(C)[C@@H](CC(C)C)C(=O)N(C)[C@H](C(=O)N(C)C)CC(=O)N1C [PP3013]	–	–	B (a compound having 3 or more and less than 10 is denoted as B)	AA (a compound having 20 or more is denoted as AA)	–	–
